Data as given in patent publication EP0565593B1, “REDUCING PESTICIDAL INTERACTIONS IN CROPS” (priority 1990, dated 1992).

Legend:
Corn [1] = experiment: Greenhouse test, combination of Procedures II and III: insecticide in-furrow or in cover layer, herbicide and antidote incorporated in cover layer (Examples 1-3, 6; Tables 1-3, 6); type: in vivo; conditions: for % Injury Corn / % Corn Injury PN 3320 / % Corn Injury PN 3377: 3 weeks; for Percent Injury Corn: 7 weeks
VELE (velvetleaf) [2] = experiment: Greenhouse test Procedure II (Example 4; Table 4); type: in vivo, Abutilon theophrasti; conditions: 3 weeks
Procedure: (§1) Containers were filled and compacted with a fumigated silt loam top soil to a depth of about 1.3 cm from the top of the container. A first container was designated as an untreated control, a second container was designated as a herbicide control, and a third container was designated as a herbicide + antidote test container. Each of the containers was seeded with a crop species. A measured amount of herbicide dispersed or dissolved in acetone was applied to a measured quantity of soil. To this same quantity of soil treated with herbicide, there was added a measured amount of antidote dispersed or dissolved in acetone. The quantity of soil treated with the herbicide and antidote was thoroughly mixed to incorporate the herbicide and antidote in the soil uniformly. The seed bed in the third container of soil was covered with the soil treated with the herbicide and antidote and the container was leveled. For each test series, the seed beds of the first and second containers were likewise covered by soil layers. the cover layer of the first container was not treated with herbicide or antidote.
This procedure is the same as Procedure I, but modified in the manner that after incorporation of the chemicals (herbicide, antidote and insecticide), the containers with the covered seedbed were treated with an initial overhead irrigation equivalent to 0.6 cm rainfall, then subsequently sub-irrigated as required on greenhouse benches.
The procedure used in this test was Procedure No. 2 above. Formulations of herbicide, insecticide and antidote were applied via track sprayer sequentially onto cover layers, incorporated into the soil which was spread over seedbeds, then irrigated from above with 0.6 cm water. Observations were made three (3) weeks after treatment.

Corn [3] = experiment: Greenhouse test Procedure I with PPI or POE herbicide and foliar insecticide (Example 5; Table 5); type: in vivo
Procedure: as §1
(§2) Insecticide application was made as described in the tests in the examples below. The containers were then placed on a bench in a greenhouse and sub-irrigated as required for the duration of the test.
(§3) Said herbicide and antidote were sequentially pipetted onto cover layers, which were spread over the seed beds and subirrigated as in Procedure I and allowed to grow to a height of about 10 cm over a period of 11 days. Herbicide No. 1 and Insecticide No. 2 were then sequentially sprayed on the plant foliage. Observations were made three (3) weeks after initial treatment, 10 days after foliar treatment).

VELE (velvetleaf) [4] = experiment: as above; type: in vivo, Abutilon theophrasti
Procedure: as §1, §2, §3

[5] = tested on: velvetleaf (Abutilon theophrasti); experiment: Greenhouse test, combination of Procedures II and III (Examples 1, 2; Tables 1, 2); type: in vivo; conditions: for % Injury VELE: 3 weeks; for Percent Injury VELE: 7 weeks
[6] = Ex. 2: Insecticide 1 0.11 kg/305m + Herbicide 1 0.14 Kg/Ha
[7] = Ex. 2: Insecticide 1 0.11 kg/305m + Herbicide 1 0.56 Kg/Ha
[8] = Ex. 2: Insecticide 1 0.23 Kg/305m + Herbicide 1 0.14 + Herbicide 2 4.48 Kg/Ha
[9] = Ex. 2: Insecticide 1 0.23 Kg/305m + Herbicide 1 0.14 Kg/Ha
[10] = Ex. 2: Insecticide 1 0.23 Kg/305m + Herbicide 1 0.56 Kg/Ha
[11] = Ex. 2: Insecticide 2 3.36 Kg/Ha + Herbicide 1 0.14 + Herbicide 2 4.48 Kg/Ha
[12] = Ex. 6: Insecticide 1 0.23 Kg/305m + Herbicide 1 0.14 Kg/Ha
[13] = Ex. 6: Insecticide 1 0.23 Kg/305m + Herbicide 1 0.56 Kg/Ha
[14] = Ex. 6: Insecticide 2 0.23 Kg/305m + Herbicide 1 0.14 Kg/Ha
[15] = Ex. 6: Insecticide 2 0.23 Kg/305m + Herbicide 1 0.56 Kg/Ha
[16] = Insecticide 1 0.23 kg/305m + Herbicide 1 0.14 Kg/Ha
[17] = Insecticide 1 0.23 kg/305m + Herbicide 1 0.56 Kg/Ha
[18] = Insecticide 1 0.23 kg/305m + Herbicide 1 2.24 Kg/Ha
[19] = Insecticide 2 3.36 kg/ha + Herbicide 1 0.14 Kg/Ha
[20] = Insecticide 2 3.36 kg/ha + Herbicide 1 0.56 Kg/Ha
[21] = Insecticide 2 3.36 kg/ha + Herbicide 1 2.24 Kg/Ha
[22] = Herbicide 1 0.07 Kg/Ha POE, 10 days after foliar treatment
[23] = Herbicide 1 0.14 Kg/Ha PPI, 3 weeks
[24] = Herbicide 1 0.28 Kg/Ha POE, 10 days after foliar treatment
[25] = Herbicide 1 0.56 Kg/Ha PPI, 3 weeks
[26] = Herbicide 1 1.12 Kg/Ha POE, 10 days after foliar treatment
[27] = Herbicide 1 2.24 Kg/Ha PPI, 3 weeks
[28] = Insecticide 2 1.68 (foliar) + Herbicide 1 0.14 Kg/Ha PPI, 3 weeks
[29] = Insecticide 2 1.68 (foliar) + Herbicide 1 0.56 Kg/Ha PPI, 3 weeks
[30] = Insecticide 2 1.68 (foliar) + Herbicide 1 2.24 Kg/Ha PPI, 3 weeks
[31] = Insecticide 2 1.68 + Herbicide 1 0.07 Kg/Ha POE, 10 days after foliar treatment
[32] = Insecticide 2 1.68 + Herbicide 1 0.28 Kg/Ha POE, 10 days after foliar treatment

COC(=O)c1c(Cl)nn(C)c1S(=O)(=O)NC(=O)Nc1nc(OC)cc(OC)n1 [Herbicide No. 1, N-[(4,6-dimethoxypyrimidin-2-yl)aminocarbonyl]-3-chloro-4-methoxycarbonyl-5-sulfonamide, reference compound]
% Injury Corn (Corn [1]; Ex. 2: Herbicide 1 0.14 Kg/Ha): 4% | % Injury Corn (Corn [1]; Ex. 2: Herbicide 1 0.56 Kg/Ha): 58% | injury to corn (Corn [1]; Ex. 2: Herbicide No. 1 0.14 kg/ha + Insecticide No. 2, no antidote): 65% | % Injury Corn (Corn [1]; [6]): 83% | % Injury Corn (Corn [1]; [7]): 93% | % Injury Corn (Corn [1]; [8]): 90% | % Injury Corn (Corn [1]; [9]): 83% | % Injury Corn (Corn [1]; [10]): 96% | % Injury Corn (Corn [1]; [11]): 83% | % Injury Corn (Corn [1]; Ex. 3: Herbicide 1 0.14 Kg/Ha): 10% | % Injury Corn (Corn [1]; Ex. 3: Herbicide 1 0.56 Kg/Ha): 63% | % Injury Corn (Corn [1]; Ex. 3: Insecticide 3 (227 g) + Herbicide 1 0.14 + Herbicide 2 4.48 Kg/Ha): 73% | % Injury Corn (Corn [1]; Ex. 3: Insecticide 3 (227g) + Herbicide 1 0.14 Kg/Ha): 45% | % Injury Corn (Corn [1]; Ex. 3: Insecticide 3 (227g) + Herbicide 1 0.56 Kg/Ha): 93% | % Injury Corn (Corn [1]; Ex. 3: Insecticide 4 (227g) + Herbicide 1 0.14 + Herbicide 2 4.48 Kg/Ha): 88% | % Injury Corn (Corn [1]; Ex. 3: Insecticide 4 (227g) + Herbicide 1 0.14 Kg/Ha): 55% | % Injury Corn (Corn [1]; Ex. 3: Insecticide 4 (227g) + Herbicide 1 0.56 Kg/Ha): 45% | % Corn Injury PN 3320 (Corn [1]; Ex. 6: Herbicide 1 0.14 Kg/Ha): 85% | % Corn Injury PN 3377 (Corn [1]; Ex. 6: Herbicide 1 0.14 Kg/Ha): 12% | % Corn Injury PN 3320 (Corn [1]; Ex. 6: Herbicide 1 0.56 Kg/Ha): 88% | % Corn Injury PN 3377 (Corn [1]; Ex. 6: Herbicide 1 0.56 Kg/Ha): 23% | % Corn Injury PN 3320 (Corn [1]; [12]): 95% | % Corn Injury PN 3377 (Corn [1]; [12]): 78% | % Corn Injury PN 3320 (Corn [1]; [13]): 95% | % Corn Injury PN 3377 (Corn [1]; [13]): 90% | % Corn Injury PN 3320 (Corn [1]; [14]): 85% | % Corn Injury PN 3377 (Corn [1]; [14]): 48% | % Corn Injury PN 3320 (Corn [1]; [15]): 88% | % Corn Injury PN 3377 (Corn [1]; [15]): 90% | Percent Injury Corn (Corn [1]; Herbicide 1 0.14 Kg/Ha): 18% | Percent Injury Corn (Corn [1]; Herbicide 1 0.56 Kg/Ha): 58% | Percent Injury Corn (Corn [1]; Herbicide 1 2.24 Kg/Ha): 85% | Percent Injury Corn (Corn [1]; [16]): 85% | Percent Injury Corn (Corn [1]; [17]): 97% | Percent Injury Corn (Corn [1]; [18]): 95% | Percent Injury Corn (Corn [1]; [19]): 60% | Percent Injury Corn (Corn [1]; [20]): 90% | Percent Injury Corn (Corn [1]; [21]): 95% | % Injury VELE (VELE (velvetleaf) [2]; Herbicide 1 0.07 kg/Ha): 20% | % Injury VELE (VELE (velvetleaf) [2]; Herbicide 1 0.14 kg/Ha): 67% | % Injury VELE (VELE (velvetleaf) [2]; Insecticide 2 3.36 + Herbicide 1 0.07 kg/Ha): 10% | % Injury VELE (VELE (velvetleaf) [2]; Insecticide 2 3.36 + Herbicide 1 0.14 kg/Ha): 20% | % Injury Corn (Corn [3]; [22]): 0% | % Injury Corn (Corn [3]; [23]): 5% | % Injury Corn (Corn [3]; [24]): 15% | % Injury Corn (Corn [3]; [25]): 28% | % Injury Corn (Corn [3]; [26]): 7% | % Injury Corn (Corn [3]; [27]): 58% | % Injury Corn (Corn [3]; [28]): 18% | % Injury Corn (Corn [3]; [29]): 10% | % Injury Corn (Corn [3]; [30]): 87% | % Injury Corn (Corn [3]; [31]): 10% | % Injury Corn (Corn [3]; [32]): 10% | % Injury VELE (VELE (velvetleaf) [4]; [22]): 30% | % Injury VELE (VELE (velvetleaf) [4]; [23]): 78% | % Injury VELE (VELE (velvetleaf) [4]; [24]): 30% | % Injury VELE (VELE (velvetleaf) [4]; [25]): 93% | % Injury VELE (VELE (velvetleaf) [4]; [26]): 20% | % Injury VELE (VELE (velvetleaf) [4]; [27]): 95% | % Injury VELE (VELE (velvetleaf) [4]; [28]): 90% | % Injury VELE (VELE (velvetleaf) [4]; [29]): 90% | % Injury VELE (VELE (velvetleaf) [4]; [30]): 98% | % Injury VELE (VELE (velvetleaf) [4]; [31]): 23% | % Injury VELE (VELE (velvetleaf) [4]; [32]): 42% | % Injury VELE ([5]; Ex. 2: Herbicide 1 0.14 Kg/Ha): 89% | % Injury VELE ([5]; Ex. 2: Herbicide 1 0.56 Kg/Ha): 93% | % Injury VELE [5, 6]: 93% | % Injury VELE [5, 7]: 94% | % Injury VELE [5, 8]: 95% | % Injury VELE [5, 9]: 83% | % Injury VELE [5, 10]: 95% | % Injury VELE [5, 11]: 88% | Percent Injury VELE ([5]; Herbicide 1 0.14 Kg/Ha): 90% | Percent Injury VELE ([5]; Herbicide 1 0.56 Kg/Ha): 95% | Percent Injury VELE ([5]; Herbicide 1 2.24 Kg/Ha): 92% | Percent Injury VELE [5, 16]: 90% | Percent Injury VELE [5, 17]: 92% | Percent Injury VELE [5, 18]: 95% | Percent Injury VELE [5, 19]: 78% | Percent Injury VELE [5, 20]: 92% | Percent Injury VELE [5, 21]: 92%
